47 molecules from patent US12600724B2, “Indole alkaloid and preparation method and use thereof” (NANJING UNIVERSITY OF CHINESE MEDICINE, priority 2022, dated 2026) can be followed below.

For this assay, the system named is primary DRG neuron. In words: Axon growth of primary DRG neurons (immunofluorescence, Neuro J). The class given is cell-based, C57BL/6J mice. As to conditions: 24 hours; for fold induction at 10 µM: Mus musculus, multiple of total axon length of a single DRG neuron relative to blank control group; for Promotion of axon growth of the primary DRG neuron compared with the positive drug (in words): 10 μm. As for the experimental part: Diabetic peripheral neuropathy involved a sensory neuron first, and a main pathological change was axonal atrophy and degeneration, or even disappearance. […] Therefore, the compounds in the examples were added with the primary DRG neuron to incubate for a certain period of time, then the axon growth of the DRG neuron was detected by immunofluorescence, and an axon length was quantified by Neuro J, so as to evaluate the promotion effect of the compound on the axon growth of the peripheral sensory neuron.
Primary antibodies of mice anti-β-tubulin III used for fluorescent staining were purchased from Sigma Company, cell culture reagents were all purchased from Gibco Company, and DRG neuronal cells were taken from C57BL/6J mice. Specific experimental steps were as follows: fresh DRG of the C57 mice was extracted to digest into a single-cell suspension and then inoculated into a culture plate for adherent culture overnight, with vinblastine as a positive drug, the to-be-detected compounds S1 to S87 ([…]) synthesized in the above examples were given to incubate for 24 hours, then an original culture medium was removed, 4% paraformaldehyde was added into each well to fix for 15 minutes after PBS washing, the mixture was permeabilized with 0.3% TritonX-100 for 5 minutes and sealed at room temperature with 4% BSA for 1 hour, a primary antibody (1:1000) was incubated at 4° C. overnight, a goat anti-mouse fluorescent secondary antibody (1:300) was incubated at room temperature in the dark for 1 hour, and a sealed slide was imaged by a fluorescence microscope (Leica). According to the image, a total axon length of a single DRG neuron was tracked by a Neuro J plug-in in Image J software, and a multiple of the total axon length relative to that of the blank control group was calculated.

Broadly, the fold induction is the signal under treatment as a multiple of the control signal. With `CC[C@@]12C=C(C(=O)NCC(=O)OCCOCCOC)n3c4c(c5ccccc53)CCN(CCC1)[C@H]42` [Compound S1], the fold induction at 10 µM worked out at 9.7.

With `CC[C@@]12C=C(C(=O)NCC(=O)OCCOCCOCCOC)n3c4c(c5ccccc53)CCN(CCC1)[C@H]42` [Compound S2], the fold induction at 10 µM was determined as 9.5. `CC[C@@]12C=C(C(=O)NCC(=O)OCCOCCOCCOCCOC)n3c4c(c5ccccc53)CCN(CCC1)[C@H]42` [Compound S3]: the “Promotion of axon growth of the primary DRG neuron compared with the positive drug (in words)” value is recorded as “more outstanding effect” and the fold induction at 10 µM turned out to be 13.2. `CC[C@@]12C=C(C(=O)NCC(=O)OCCOCCOCCOCCOCCOC)n3c4c(c5ccccc53)CCN(CCC1)[C@H]42` [Compound S4]: the fold induction at 10 µM turned out to be 11.5. `CC[C@@]12C=C(C(=O)N[C@@H](CC(C)C)C(=O)OCCOCCOCCOCCOC)n3c4c(c5ccccc53)CCN(CCC1)[C@H]42` [Compound S13] registered a fold induction at 10 µM of 11.6.

For `CC[C@@]12C=C(C(=O)N[C@@H](Cc3ccccc3)C(=O)OCCOCCOCCOCCOC)n3c4c(c5ccccc53)CCN(CCC1)[C@H]42` [Compound S14], the fold induction at 10 µM came out at 10.5. For the molecule `CC[C@@]12C=C(C(=O)N[C@@H](CO)C(=O)OCCOCCOCCOCCOC)n3c4c(c5ccccc53)CCN(CCC1)[C@H]42` [Compound S15], the fold induction at 10 µM is 11.3.

On to `CC[C@@]12C=C(C(=O)N[C@@H](CC(N)=O)C(=O)OCCOCCOCCOCCOC)n3c4c(c5ccccc53)CCN(CCC1)[C@H]42` [Compound S16], for which the fold induction at 10 µM came out at 11.2. Take `CC[C@@]12C=C(C(=O)NCC(=O)OCCO)n3c4c(c5ccccc53)CCN(CCC1)[C@H]42` [Compound S23]: the fold induction at 10 µM came to 10.3. `CC[C@@]12C=C(C(=O)NCC(=O)OCCOCCO)n3c4c(c5ccccc53)CCN(CCC1)[C@H]42` [Compound S24] yielded a fold induction at 10 µM of 11.7. Turning to `CC[C@@]12C=C(C(=O)NCC(=O)OCCOCCOCCO)n3c4c(c5ccccc53)CCN(CCC1)[C@H]42` [Compound S25], the fold induction at 10 µM came out at 12.3.

Take `CC[C@@]12C=C(C(=O)NCC(=O)OCCOCCOCCOCCOCCO)n3c4c(c5ccccc53)CCN(CCC1)[C@H]42` [Compound S27]: the “Promotion of axon growth of the primary DRG neuron compared with the positive drug (in words)” value is listed as “more outstanding effect” and the fold induction at 10 µM came to 12.9. With `CC[C@@]12C=C(C(=O)NCC(=O)OCCOCCOCCOCCOCCOCCO)n3c4c(c5ccccc53)CCN(CCC1)[C@H]42` [Compound S28], the fold induction at 10 µM was determined as 12.2.

In turn, `CC[C@@]12C=C(C(=O)N[C@@H](C)C(=O)OCCOCCOCCOCCO)n3c4c(c5ccccc53)CCN(CCC1)[C@H]42` [Compound S29] gave a fold induction at 10 µM of 12.5. `CC[C@@]12C=C(C(=O)N[C@H](C(=O)OCCOCCOCCOCCO)C(C)C)n3c4c(c5ccccc53)CCN(CCC1)[C@H]42` [Compound S30] came in with a fold induction at 10 µM of 12.6. Still for that read-out and setting: the same measure for `CC[C@@]12C=C(C(=O)N[C@@H](CC(C)C)C(=O)OCCOCCOCCOCCO)n3c4c(c5ccccc53)CCN(CCC1)[C@H]42` [Compound S31]: 11.8; for `CCC(C)[C@H](NC(=O)C1=C[C@]2(CC)CCCN3CCc4c(n1c1ccccc41)[C@@H]32)C(=O)OCCOCCOCCOCCO` (some centres unmarked) [Compound S32]: 12.3. In turn, `CC[C@@]12C=C(C(=O)N[C@@H](Cc3ccccc3)C(=O)OCCOCCOCCOCCO)n3c4c(c5ccccc53)CCN(CCC1)[C@H]42` [Compound S33] registered a fold induction at 10 µM of 10.9. As to `CC[C@@]12C=C(C(=O)N[C@@H](CO)C(=O)OCCOCCOCCOCCO)n3c4c(c5ccccc53)CCN(CCC1)[C@H]42` [Compound S34], the fold induction at 10 µM stood at 10.5.

Turning to `CC[C@@]12C=C(C(=O)N[C@H](C(=O)OCCOCCOCCOCCO)C(C)O)n3c4c(c5ccccc53)CCN(CCC1)[C@H]42` (some centres unmarked) [Compound S35], the fold induction at 10 µM is 12.1. In turn, `CC[C@@]12C=C(C(=O)N[C@@H](CCC(N)=O)C(=O)OCCOCCOCCOCCO)n3c4c(c5ccccc53)CCN(CCC1)[C@H]42` [Compound S36] came in with a fold induction at 10 µM of 11.7.

`CC[C@@]12C=C(C(=O)N[C@@H](Cc3cc4ccccc4[nH]3)C(=O)OCCOCCOCCOCCO)n3c4c(c5ccccc53)CCN(CCC1)[C@H]42` [Compound S37]: the fold induction at 10 µM turned out to be 10.8. With `CC[C@@]12C=C(C(=O)N[C@@H](CN)C(=O)OCCOCCOCCOCCO)n3c4c(c5ccccc53)CCN(CCC1)[C@H]42` [Compound S39], the fold induction at 10 µM came to 11.2. `CC[C@@]12C=C(C(=O)N[C@@H](CCCCN)C(=O)OCCOCCOCCOCCO)n3c4c(c5ccccc53)CCN(CCC1)[C@H]42` [Compound S40] had a fold induction at 10 µM of 11.4. The molecule `CC[C@@]12C=C(C(=O)N[C@@H](CC(N)=O)C(=O)OCCOCCOCCOCCO)n3c4c(c5ccccc53)CCN(CCC1)[C@H]42` [Compound S41] yielded a fold induction at 10 µM of 11. On to `CC[C@@]12C=C(C(=O)N[C@@H](CC(=O)O)C(=O)OCCOCCOCCOCCO)n3c4c(c5ccccc53)CCN(CCC1)[C@H]42` [Compound S42], for which the fold induction at 10 µM came out at 10.3.

As for `CC[C@@]12C=C(C(=O)N[C@@H](CCC(=O)O)C(=O)OCCOCCOCCOCCO)n3c4c(c5ccccc53)CCN(CCC1)[C@H]42` [Compound S43], the fold induction at 10 µM amounted to 11.2. Take `CC[C@@]12C=C(C(=O)N[C@@H](Cc3ccc(O)cc3)C(=O)OCCOCCOCCOCCO)n3c4c(c5ccccc53)CCN(CCC1)[C@H]42` [Compound S44]: the fold induction at 10 µM was determined as 9.9. Same read-out and setting: in the case of `CC[C@@]12C=C(C(=O)N[C@@H](Cc3c[nH]cn3)C(=O)OCCOCCOCCOCCO)n3c4c(c5ccccc53)CCN(CCC1)[C@H]42` [Compound S45] it was 10.5; in that of `CC[C@@]12C=C(C(=O)N[C@@H](CS)C(=O)OCCOCCOCCOCCO)n3c4c(c5ccccc53)CCN(CCC1)[C@H]42` [Compound S46], 10.7; in that of `CC[C@@]12C=C(C(=O)NCC(=O)N[C@@H](C)C(=O)OCCOCCOCCO)n3c4c(c5ccccc53)CCN(CCC1)[C@H]42` [Compound S47], 11.2.

The molecule `CC[C@@]12C=C(C(=O)NCC(=O)N[C@@H](CO)C(=O)OCCOCCOCCOCCO)n3c4c(c5ccccc53)CCN(CCC1)[C@H]42` [Compound S48] had a fold induction at 10 µM of 11.4.

Turning to `CC[C@@]12C=C(C(=O)NCC(=O)N[C@@H](CC(N)=O)C(=O)OCCOCCOCCOCCO)n3c4c(c5ccccc53)CCN(CCC1)[C@H]42` [Compound S49], the fold induction at 10 µM worked out at 12. Still for that read-out and setting: in the case of `CC[C@@]12C=C(C(=O)NCC(=O)N[C@@H](CC(=O)O)C(=O)OCCOCCOCCOCCO)n3c4c(c5ccccc53)CCN(CCC1)[C@H]42` [Compound S50] it was 11.3. With `CC[C@@]12C=C(C(=O)NCC(=O)N[C@@H](CC(C)C)C(=O)OCCOCCOCCOCCO)n3c4c(c5ccccc53)CCN(CCC1)[C@H]42` [Compound S51], the fold induction at 10 µM is 9.8.

As for `CC[C@@]12C=C(C(=O)NCC(=O)N[C@H](C(=O)OCCOCCOCCOCCO)C(C)O)n3c4c(c5ccccc53)CCN(CCC1)[C@H]42` (some centres unmarked) [Compound S52], the fold induction at 10 µM came to 9.5.

The molecule `CC[C@@]12C=C(C(=O)OCCC(=O)OCCO)n3c4c(c5ccccc53)CCN(CCC1)[C@H]42` [Compound S53] had a fold induction at 10 µM of 9.9.

The molecule `CC[C@@]12C=C(C(=O)OCCC(=O)OCCOCCO)n3c4c(c5ccccc53)CCN(CCC1)[C@H]42` [Compound S56] yielded a fold induction at 10 µM of 11.3. As to `CC[C@@]12C=C(C(=O)OCCC(=O)OCCOCCOCCO)n3c4c(c5ccccc53)CCN(CCC1)[C@H]42` [Compound S57], the fold induction at 10 µM turned out to be 10.8. On the same count and under the same terms, the same measure for `CC[C@@]12C=C(C(=O)OCCC(=O)OCCOCCOCCOCCO)n3c4c(c5ccccc53)CCN(CCC1)[C@H]42` [Compound S58]: 11.4; for `CC[C@@]12C=C(C(=O)OCCC(=O)OCCOCCOCCOCCOCCO)n3c4c(c5ccccc53)CCN(CCC1)[C@H]42` [Compound S59]: 10.6.

The molecule `CC[C@@]12C=C(C(=O)OCCC(=O)OCCOCCOCCOCCOCCOCCO)n3c4c(c5ccccc53)CCN(CCC1)[C@H]42` [Compound S60] showed a fold induction at 10 µM of 12. As for `CC[C@@]12C=C(C(=O)OCCCC(=O)OCCOCCOCCOCCO)n3c4c(c5ccccc53)CCN(CCC1)[C@H]42` [Compound S61], the fold induction at 10 µM stood at 11.3. Turning to `CC[C@@]12C=C(C(=O)OCCCC(=O)OCCOCCOCCOCCOCCOCCO)n3c4c(c5ccccc53)CCN(CCC1)[C@H]42` [Compound S62], the “Promotion of axon growth of the primary DRG neuron compared with the positive drug (in words)” value is given as “more outstanding effect” and the fold induction at 10 µM is 12.8. `CC[C@@]12C=C(C(=O)N(C)CC(=O)OCCOCCOCCOCCO)n3c4c(c5ccccc53)CCN(CCC1)[C@H]42` [Compound S63] showed a fold induction at 10 µM of 10.9. `CC[C@@]12C=C(C(=O)N(CC(=O)OCCOCCOCCOCCO)C3CC3)n3c4c(c5ccccc53)CCN(CCC1)[C@H]42` [Compound S64] showed a fold induction at 10 µM of 11.3. Same read-out and setting: the same measure for `CC[C@@]12C=C(C(=O)NCCNC(=O)OCCOCCOCCOCCO)n3c4c(c5ccccc53)CCN(CCC1)[C@H]42` [Compound S65]: 11.
